Calls of active or inactive are those of the source.
Tests used:
Vero = assay: host cell cytotoxicity of antiviral hits, dose response, cytotoxicity control for West Nile virus antiviral project, secondary assay (AID 1650); assay type: functional; conditions: Chlorocebus sabaeus
[1] = molecular target: T1, Short transient receptor potential channel 4 (Mus musculus, UniProt Q9QUQ5); assay: mouse TRPC4 channel inhibitors, dose response, cell-based, HEK293 TRPC4/mu-opioid, Fluo-4 calcium (AID 434942); assay type: functional;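 further: potency of inhibitors blocking the TRPC4 calcium response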
T1 sequence (Q9QUQ5 whole entry): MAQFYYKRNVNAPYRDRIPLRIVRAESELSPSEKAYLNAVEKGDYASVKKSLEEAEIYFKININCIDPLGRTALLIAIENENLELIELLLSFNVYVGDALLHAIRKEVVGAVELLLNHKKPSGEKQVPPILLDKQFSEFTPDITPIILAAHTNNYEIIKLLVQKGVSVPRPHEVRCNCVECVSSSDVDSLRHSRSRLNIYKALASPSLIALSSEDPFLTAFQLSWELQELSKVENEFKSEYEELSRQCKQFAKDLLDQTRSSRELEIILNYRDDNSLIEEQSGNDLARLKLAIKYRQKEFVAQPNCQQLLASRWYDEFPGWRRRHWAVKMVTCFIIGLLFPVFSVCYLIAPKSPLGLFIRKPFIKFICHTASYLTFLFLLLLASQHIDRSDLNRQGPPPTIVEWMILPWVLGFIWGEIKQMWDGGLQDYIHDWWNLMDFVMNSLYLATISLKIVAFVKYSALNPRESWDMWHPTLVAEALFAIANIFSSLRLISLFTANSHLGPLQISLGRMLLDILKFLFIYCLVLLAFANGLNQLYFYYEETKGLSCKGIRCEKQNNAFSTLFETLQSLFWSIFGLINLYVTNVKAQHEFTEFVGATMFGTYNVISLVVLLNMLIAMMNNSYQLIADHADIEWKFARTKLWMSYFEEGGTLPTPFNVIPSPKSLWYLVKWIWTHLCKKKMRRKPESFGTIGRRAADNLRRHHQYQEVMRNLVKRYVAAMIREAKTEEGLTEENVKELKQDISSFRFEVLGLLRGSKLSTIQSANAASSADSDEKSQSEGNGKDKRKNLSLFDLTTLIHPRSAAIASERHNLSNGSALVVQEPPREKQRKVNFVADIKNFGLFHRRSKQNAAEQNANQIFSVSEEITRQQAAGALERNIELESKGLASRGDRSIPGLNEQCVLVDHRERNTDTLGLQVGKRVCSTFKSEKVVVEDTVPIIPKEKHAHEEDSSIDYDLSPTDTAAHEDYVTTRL

[2] = Shn3 3'UTR reporter inhibitors, dose response, cell-based, Clone20 osteoblasts, firefly luciferase, cherry-picked (AID 624132); assay type: functional;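 further: firefly luciferase luminescence from reporter carrying the Shn3 3'UTR in osteoblasts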
[3] = control 3'UTR Renilla luciferase suppression, dose response, counter-screen for Shn3 inhibitor project, cell-based, Clone20-Shn3RL, cherry-picked (AID 624133); assay type: functional
Paired box protein Pax-8 = Paired box protein Pax-8 (Homo sapiens, UniProt Q06710); assay: inhibitors of PAX8-driven TPO luciferase reporter, dose response, RMG-I cells, cherry-pick (AID 687027); assay type: functional, cell-based;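 further: luciferase reporter driven by Pax8 target thyroperoxidase promoter measured by SteadyGlo luminescence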
[4] = inhibitors of firefly luciferase expression or activity, dose response, H4 neuroglioma cells, luminescence (AID 1990); assay type: functional, cell-based
[5] = Luminescence Cell-Based Dose Response HTS to Identify Inhibitors of 5'UTR Stem-Loop Driven Prion Protein mRNA Translation in H4 Neuroglioblastoma Cells. [Related pubchem assays: 1827 (Project Summary), 1813 (Primary HTS)]; assay type: functional
[6] = inhibitors of SNCA 5'UTR-driven reporter translation, confirmation, H4 neuroglioma cells, luminescence (AID 1988); assay type: functional, cell-based
Prothrombin = Prothrombin (Homo sapiens, UniProt P00734); assay: Thrombin 1536 HTS Dose Response Confirmation. [Related pubchem assays: 1046 (Thrombin 1536 HTS; hits were confirmed in this assay)]; assay type: functional
X-box-binding protein 1 = molecular target: T2, X-box-binding protein 1 (Homo sapiens, UniProt P17861); assay type: functional, Cricetulus griseus;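 further: confirmatory dose-response counter-screen serving a CHOP assay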
T2 sequence (P17861 whole entry): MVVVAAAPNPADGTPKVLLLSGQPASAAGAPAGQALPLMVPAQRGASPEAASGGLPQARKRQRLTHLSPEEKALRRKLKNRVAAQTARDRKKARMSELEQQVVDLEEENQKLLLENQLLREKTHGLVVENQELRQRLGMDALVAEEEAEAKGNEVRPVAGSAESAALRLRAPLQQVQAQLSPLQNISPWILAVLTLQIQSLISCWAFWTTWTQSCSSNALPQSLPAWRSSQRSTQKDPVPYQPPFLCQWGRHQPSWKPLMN

Leucine aminopeptidase = molecular target: T3, Leucine aminopeptidase (Plasmodium falciparum 3D7, UniProt Q8IL11); assay: P. falciparum M17LAP inhibitors, primary screen, biochemical, fluorogenic H-Leu-NHMec substrate, 1536-well (AID 1619); assay type: functional
T3 sequence (Q8IL11 whole entry): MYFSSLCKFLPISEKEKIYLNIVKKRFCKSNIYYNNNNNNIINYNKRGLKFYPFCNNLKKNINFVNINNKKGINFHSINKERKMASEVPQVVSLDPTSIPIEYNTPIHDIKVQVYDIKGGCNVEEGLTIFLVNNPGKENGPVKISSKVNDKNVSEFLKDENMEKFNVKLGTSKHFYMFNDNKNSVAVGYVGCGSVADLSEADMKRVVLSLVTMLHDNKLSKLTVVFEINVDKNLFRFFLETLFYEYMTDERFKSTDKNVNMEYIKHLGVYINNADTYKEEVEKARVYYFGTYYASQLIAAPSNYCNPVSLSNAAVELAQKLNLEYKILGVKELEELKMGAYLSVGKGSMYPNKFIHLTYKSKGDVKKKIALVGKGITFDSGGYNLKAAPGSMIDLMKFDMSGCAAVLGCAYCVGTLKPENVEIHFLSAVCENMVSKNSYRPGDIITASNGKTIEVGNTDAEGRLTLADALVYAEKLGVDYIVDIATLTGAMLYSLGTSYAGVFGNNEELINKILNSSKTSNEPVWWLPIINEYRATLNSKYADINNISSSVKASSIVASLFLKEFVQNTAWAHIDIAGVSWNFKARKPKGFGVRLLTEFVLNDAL

Aspartyl aminopeptidase = molecular target: T4, Aspartyl aminopeptidase (Plasmodium falciparum 3D7, UniProt Q8I2J3); assay: Counterscreen for inhibitors of M1 and M17 aminopeptidases: QFRET-based biochemical high throughput dose response assay for inhibitors of the Plasmodium falciparum M18 Aspartyl Aminopeptidase (PFM18AAP). [Related PubChem assays: 1619 (Screening assay (M17LAP inhibitors).), 1445 (Screening assay (M1AAP inhibitors).)]
T4 sequence (Q8I2J3 whole entry): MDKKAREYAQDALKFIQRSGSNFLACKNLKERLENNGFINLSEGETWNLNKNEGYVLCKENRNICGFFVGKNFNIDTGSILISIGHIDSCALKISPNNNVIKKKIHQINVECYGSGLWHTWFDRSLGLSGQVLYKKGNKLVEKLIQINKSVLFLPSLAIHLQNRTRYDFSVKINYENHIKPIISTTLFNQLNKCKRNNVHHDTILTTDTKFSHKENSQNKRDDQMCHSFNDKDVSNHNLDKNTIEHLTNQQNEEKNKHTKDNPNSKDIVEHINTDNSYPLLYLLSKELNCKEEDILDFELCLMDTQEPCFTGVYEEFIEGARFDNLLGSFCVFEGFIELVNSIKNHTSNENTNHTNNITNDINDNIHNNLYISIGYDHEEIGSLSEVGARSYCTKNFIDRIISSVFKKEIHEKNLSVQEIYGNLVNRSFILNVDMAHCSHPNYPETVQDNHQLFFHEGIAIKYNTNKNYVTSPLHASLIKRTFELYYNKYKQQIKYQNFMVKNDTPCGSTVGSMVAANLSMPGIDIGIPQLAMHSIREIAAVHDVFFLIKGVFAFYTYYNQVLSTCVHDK

Procathepsin L = Procathepsin L (Homo sapiens, UniProt P07711); assay: cathepsin L inhibitors, dose response, counter-screen for M1/M17 aminopeptidase inhibitor project, biochemical, QFRET, 1536-well (AID 2214)
Aminopeptidase N = molecular target: T5, Aminopeptidase N (Plasmodium falciparum FcB1/Columbia, UniProt O96935); assay: P. falciparum M1AAP inhibitors, biochemical, fluorogenic H-Leu-NHMec substrate, 1536-well (AID 1445); parameters: species or system Plasmodium falciparum 3D7, 3D7
T5 sequence (O96935 whole entry): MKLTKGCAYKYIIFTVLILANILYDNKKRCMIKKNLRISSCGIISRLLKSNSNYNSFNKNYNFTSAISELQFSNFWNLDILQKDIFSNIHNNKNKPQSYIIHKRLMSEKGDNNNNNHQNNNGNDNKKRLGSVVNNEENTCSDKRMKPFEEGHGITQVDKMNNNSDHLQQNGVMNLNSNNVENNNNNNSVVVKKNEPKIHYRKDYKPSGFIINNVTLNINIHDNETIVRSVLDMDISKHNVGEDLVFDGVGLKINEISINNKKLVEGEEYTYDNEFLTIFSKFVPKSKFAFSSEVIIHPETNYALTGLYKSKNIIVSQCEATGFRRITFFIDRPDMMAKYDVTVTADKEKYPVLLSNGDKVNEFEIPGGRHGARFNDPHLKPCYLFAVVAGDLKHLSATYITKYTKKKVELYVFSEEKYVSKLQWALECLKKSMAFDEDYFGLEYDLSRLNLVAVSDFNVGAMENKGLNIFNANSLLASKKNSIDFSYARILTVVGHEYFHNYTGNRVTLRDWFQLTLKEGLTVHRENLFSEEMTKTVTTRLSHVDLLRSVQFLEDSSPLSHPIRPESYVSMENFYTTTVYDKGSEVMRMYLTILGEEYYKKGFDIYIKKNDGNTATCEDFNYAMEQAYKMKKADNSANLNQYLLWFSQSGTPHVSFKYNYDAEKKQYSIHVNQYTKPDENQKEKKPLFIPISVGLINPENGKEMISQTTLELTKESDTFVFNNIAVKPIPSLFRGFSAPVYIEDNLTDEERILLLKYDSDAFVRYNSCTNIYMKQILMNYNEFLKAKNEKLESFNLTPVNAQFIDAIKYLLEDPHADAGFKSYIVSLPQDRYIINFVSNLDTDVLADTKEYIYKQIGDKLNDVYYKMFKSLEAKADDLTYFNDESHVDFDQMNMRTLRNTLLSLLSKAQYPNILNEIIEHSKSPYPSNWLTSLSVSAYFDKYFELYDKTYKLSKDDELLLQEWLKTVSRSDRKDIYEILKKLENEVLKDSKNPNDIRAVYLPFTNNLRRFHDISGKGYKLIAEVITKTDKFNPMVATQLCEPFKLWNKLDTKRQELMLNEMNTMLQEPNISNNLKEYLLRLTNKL

Chain of Procathepsin L (P07711 whole entry): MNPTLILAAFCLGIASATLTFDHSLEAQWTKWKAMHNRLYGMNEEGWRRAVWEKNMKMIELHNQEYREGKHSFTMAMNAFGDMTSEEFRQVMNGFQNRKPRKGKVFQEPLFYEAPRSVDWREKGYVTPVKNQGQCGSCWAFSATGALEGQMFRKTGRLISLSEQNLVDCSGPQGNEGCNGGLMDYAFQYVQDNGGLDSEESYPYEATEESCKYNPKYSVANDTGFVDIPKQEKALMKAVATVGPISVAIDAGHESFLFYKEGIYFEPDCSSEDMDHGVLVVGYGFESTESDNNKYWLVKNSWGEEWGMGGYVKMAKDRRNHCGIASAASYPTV
Chain of Paired box protein Pax-8 (Q06710 whole entry): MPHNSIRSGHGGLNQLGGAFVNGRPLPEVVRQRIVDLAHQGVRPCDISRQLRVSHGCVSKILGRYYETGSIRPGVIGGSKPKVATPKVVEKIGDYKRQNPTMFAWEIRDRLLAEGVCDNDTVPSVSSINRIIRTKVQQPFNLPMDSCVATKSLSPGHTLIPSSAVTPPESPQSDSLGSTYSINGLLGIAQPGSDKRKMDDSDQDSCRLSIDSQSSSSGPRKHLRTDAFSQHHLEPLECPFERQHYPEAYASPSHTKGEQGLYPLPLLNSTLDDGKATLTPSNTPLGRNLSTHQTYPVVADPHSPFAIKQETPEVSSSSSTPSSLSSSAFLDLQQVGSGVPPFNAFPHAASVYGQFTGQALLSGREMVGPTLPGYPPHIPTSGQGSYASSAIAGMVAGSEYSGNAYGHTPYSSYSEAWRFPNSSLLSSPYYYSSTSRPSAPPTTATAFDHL

## O=C(Nc1ccccc1-c1nc2ccccc2s1)c1ccco1
Vero
  CC50: 12.8 µM (active)

## Clc1ccc(COc2ccccc2CNCc2cccnc2)cc1
[1]
  EC50: 2.99 µM (active)

## C=C1C(=O)[C@@]23[C@H](O)C[C@@H]4C(C)(C)CC[C@H](O)[C@]4(C)[C@@H]2C[C@H](O)[C@@H]1[C@H]3O
Vero
  CC50: 14.9 µM (active)
[2]
  AC50: 2.95 µM (active)
[3]
  AC50: 18.3 µM (active)
Paired box protein Pax-8
  AC50: 3.37 µM (active)

## C=CCc1cccc(/C=N/NC(=O)CNc2ccccc2)c1O
[4]
  EC50: > 120 µM (not active)
[5]
  EC50: 10.7 µM (active)
[6]
  EC50: > 120 µM (not active)
Prothrombin
  IC50: > 50 µM (not active)

## CCC(=O)N1N=C(c2c(O)nc3ccc(Cl)cc3c2-c2ccccc2)CC1c1ccco1 (stereo not drawn)
Vero
  CC50: 73.3 µM (active)
X-box-binding protein 1
  Absolute IC50 (XBP1): 10 µM

## Cc1ccc(-n2c(C)cc(C(=O)COC(=O)c3ccc[nH]c3=O)c2C)cc1
Leucine aminopeptidase
  IC50: 1.22 µM (active)
Aspartyl aminopeptidase
  IC50: > 73.5 µM (not active)
Procathepsin L
  IC50: > 59.6 µM (not active)

## O=C(Nn1c(Cc2cccs2)nc2ccccc2c1=O)c1cccs1
Aspartyl aminopeptidase
  IC50: > 73.5 µM (not active)
Aminopeptidase N
  IC50: 11.9 µM (active)
Procathepsin L
  IC50: > 59.6 µM (not active)

From ChEMBL document CHEMBL1201862, “PubChem BioAssay data set” (2004)
